The values that follow are results of earlier work, collected in patent publication US20230321091A1, “SUBSTITUTED PYRIDAZINONES FOR USE IN THE TREATMENT OF NEUROMUSCULAR DISEASES” (Edgewise Therapeutics, Inc., priority 2020, published 2023).

The data set deals with embryos from zebrafish model of DMD.

Take `Cc1ccc(S(=O)(=O)NCc2ccccc2)cc1` [BTS, N-benzyl-p-tolyl-sulfonamide]: the “protection of muscles from pathological muscle derangement” value was “protect muscles from pathological muscle derangement”.
